26 compounds from patent publication US12060347B2 (BRISTOL-MYERS SQUIBB COMPANY, priority 2016, dated 2024) can be followed below.

pIC50: −log10 of the molar value.

This experiment has as its target T1, human PAR4 (Homo sapiens, UniProt Q96RI0).
T1 construct: expressed in transfected cells; host or cells: HEK293 PAR4 Clone 1.2A (BMS Arctic ID 383940)
T1 sequence (Q96RI0 18-385): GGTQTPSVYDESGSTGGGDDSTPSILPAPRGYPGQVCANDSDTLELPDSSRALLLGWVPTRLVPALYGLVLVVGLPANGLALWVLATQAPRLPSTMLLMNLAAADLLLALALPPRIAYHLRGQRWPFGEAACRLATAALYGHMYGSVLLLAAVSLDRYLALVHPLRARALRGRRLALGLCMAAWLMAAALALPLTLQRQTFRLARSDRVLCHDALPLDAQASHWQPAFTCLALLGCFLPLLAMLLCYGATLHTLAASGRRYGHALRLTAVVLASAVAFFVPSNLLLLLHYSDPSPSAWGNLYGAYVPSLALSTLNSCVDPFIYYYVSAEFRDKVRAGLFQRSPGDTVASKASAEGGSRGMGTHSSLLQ
Briefly: PAR4 FLIPR assay: antagonism of agonist-peptide-induced calcium mobilization in PAR4-expressing HEK293 cells. Format: cell-based. The following applies: H-Ala-Phe(4-F)-[…]NH2-induced intracellular calcium mobilization, 11-point curves.
Take `COc1cnc2c(-c3nc4cc(F)c(OC[C@@H](C)OC(=O)Nc5ccc(C#N)nc5)cc4s3)cc(C)cc2n1` [Example 351, (R)-1-((5-fluoro-2-(2-methoxy-7-methylquinoxalin-5-yl)benzo[d]thiazol-6-yl)oxy) propan-2-yl (6-cyanopyridin-3-yl)carbamate]: the negative-log IC50 (pIC50) was 8.57. Take `COc1cnc2c(-c3nc4cc(F)c(OC[C@@H](C)OC(=O)NCCC(N)=O)cc4s3)cc(C)cc2n1` [Example 352, (R)-1-((5-fluoro-2-(2-methoxy-7-methylquinoxalin-5-yl)benzo[d]thiazol-6-yl)oxy)propan-2-yl (3-amino-3-oxopropyl) carbamate]: the pIC50 is 6.41.

For `COc1cnc2c(-c3nc4cc(F)c(OC[C@@H](C)OC(=O)Nc5ccnnc5)cc4s3)cc(C)cc2n1` [Example 353, (R)-1-((5-fluoro-2-(2-methoxy-7-methylquinoxalin-5-yl)benzo[d]thiazol-6-yl)oxy)propan-2-yl pyridazin-4-ylcarbamate], the pIC50 is 7.66. The same measure for `COc1cnc2c(-c3nc4cc(F)c(OC[C@@H](C)OC(=O)Nc5cnc6[nH]ccc6c5)cc4s3)cc(C)cc2n1` [Example 354, (R)-1-((5-fluoro-2-(2-methoxy-7-methylquinoxalin-5-yl)benzo[d]thiazol-6-yl)oxy)propan-2-yl 1H-pyrrolo[2,3-b]pyridin-5-ylcarbamate]: 8.92; for `COc1cnc2c(-c3nc4cc(F)c(OC[C@@H](C)OC(=O)Nc5ccc6[nH]ccc6c5)cc4s3)cc(C)cc2n1` [Example 355, (R)-1-((5-fluoro-2-(2-methoxy-7-methylquinoxalin-5-yl)benzo[d]thiazol-6-yl)oxy)propan-2-yl 1H-indol-5-ylcarbamate]: 7.77; for `COc1cnc2c(-c3nc4cc(F)c(OC[C@@H](C)OC(=O)Nc5ccc6c(ccn6C)c5)cc4s3)cc(C)cc2n1` [Example 356, (R)-1-((5-fluoro-2-(2-methoxy-7-methylquinoxalin-5-yl)benzo[d]thiazol-6-yl)oxy)propan-2-yl (1-methyl-1H-indol-5-yl)carbamate]: 8.68.

Regarding `COc1cnc2c(-c3nc4cc(F)c(OC[C@@H](C)OC(=O)Nc5cnc(C)nc5)cc4s3)cc(C)cc2n1` [Example 357, (R)-1-((5-fluoro-2-(2-methoxy-7-methylquinoxalin-5-yl)benzo[d]thiazol-6-yl)oxy)propan-2-yl (2-methylpyrimidin-5-yl)carbamate], the pIC50 is 8.17. Under `COc1cnc2c(-c3nc4c(Cl)c(F)c(OCCOC(N)=O)cc4s3)cc(C)cc2n1` [Example 358, 2-((4-chloro-5-fluoro-2-(2-methoxy-7-methylquinoxalin-5-yl)benzo[d]thiazol-6-yl)oxy) ethyl carbamate] stands 6.57; under `COc1cnc2c(-c3nc4c(Cl)c(F)c(OCCOC(=O)Nc5cnc6[nH]ccc6c5)cc4s3)cc(C)cc2n1` [Example 359, 2-((4-chloro-5-fluoro-2-(2-methoxy-7-methylquinoxalin-5-yl)benzo[d]thiazol-6-yl)oxy)ethyl 1H-pyrrolo[2,3-b]pyridin-5-ylcarbamate], 6.77. The same measure for `COc1cnc2c(-c3nc4c(Cl)c(F)c(OCCOC(=O)Nc5ccc6[nH]ccc6c5)cc4s3)cc(C)cc2n1` [Example 360, 2-((4-chloro-5-fluoro-2-(2-methoxy-7-methylquinoxalin-5-yl)benzo[d]thiazol-6-yl)oxy)ethyl 1H-indol-5-ylcarbamate]: 6.80.

In the case of `COC(=O)c1ccc(NC(=O)OCCOc2cc3sc(-c4cc(C)cc5nc(OC)cnc45)nc3c(Cl)c2F)cn1` [Example 361, methyl 5-(((2-((4-chloro-5-fluoro-2-(2-methoxy-7-methylquinoxalin-5-yl)benzo[d]thiazol-6-yl)oxy)ethoxy)carbonyl)amino)picolinate], the pIC50 is 8.26. In the case of `COc1cnc2c(-c3nc4c(Cl)c(F)c(OCCOC(=O)Nc5cnc(C)nc5)cc4s3)cc(C)cc2n1` [Example 362, 2-((4-chloro-5-fluoro-2-(2-methoxy-7-methylquinoxalin-5-yl)benzo[d]thiazol-6-yl)oxy)ethyl (2-methylpyrimidin-5-yl)carbamate], the pIC50 was 8.39. Under `COc1cnc2c(-c3nc4c(Cl)c(F)c(OCCOC(=O)Nc5nsc(OC)n5)cc4s3)cc(C)cc2n1` [Example 363, 2-((4-chloro-5-fluoro-2-(2-methoxy-7-methylquinoxalin-5-yl)benzo[d]thiazol-6-yl)oxy)ethyl (5-methoxy-1,2,4-thiadiazol-3-yl)carbamate] stands 5.77; under `COc1cnc2c(-c3nc4c(Cl)c(F)c(OCCOC(=O)Nc5cn[nH]c5)cc4s3)cc(C)cc2n1` [Example 364, 2-((4-chloro-5-fluoro-2-(2-methoxy-7-methylquinoxalin-5-yl)benzo[d]thiazol-6-yl)oxy)ethyl 1H-pyrazol-4-ylcarbamate], 7.72.

`COc1cnc2c(-c3nc4c(Cl)c(F)c(OCCOC(=O)Nc5cnn(C)c5)cc4s3)cc(C)cc2n1` [Example 365, 2-((4-chloro-5-fluoro-2-(2-methoxy-7-methylquinoxalin-5-yl)benzo[d]thiazol-6-yl)oxy) ethyl (1-methyl-1H-pyrazol-4-yl)carbamate]: the pIC50 was 8.60. As for `COc1cnc2c(-c3nc4c(Cl)c(F)c(OCCOC(=O)Nc5nnc(C)o5)cc4s3)cc(C)cc2n1` [Example 366, 2-((4-chloro-5-fluoro-2-(2-methoxy-7-methylquinoxalin-5-yl)benzo[d]thiazol-6-yl)oxy)ethyl (5-methyl-1,3,4-oxadiazol-2-yl) carbamate], the pIC50 was 6.26.

`COc1cnc2c(-c3nc4c(Cl)c(F)c(OCCOC(=O)Nc5cnc6c(c5)cc(C)n6C)cc4s3)cc(C)cc2n1` [Example 367, 2-((4-chloro-5-fluoro-2-(2-methoxy-7-methylquinoxalin-5-yl)benzo[d]thiazol-6-yl)oxy)ethyl (1,2-dimethyl-1H-pyrrolo[2,3-b]pyridin-5-yl)carbamate]: the pIC50 is 7.92. Under `COc1cnc2c(-c3nc4c(Cl)c(F)c(OCCOC(=O)NCc5ccncc5)cc4s3)cc(C)cc2n1` [Example 369, 2-((4-chloro-5-fluoro-2-(2-methoxy-7-methylquinoxalin-5-yl)benzo[d]thiazol-6-yl)oxy)ethyl (pyridin-4-ylmethyl)carbamate] stands 7.89; under `COc1cnc2c(-c3nc4c(Cl)c(F)c(OC[C@@H](C)OC(=O)Nc5nnc(C)s5)cc4s3)cc(C)cc2n1` [Example 370, (R)-1-((4-chloro-5-fluoro-2-(2-methoxy-7-methylquinoxalin-5-yl)benzo[d]thiazol-6-yl)oxy)propan-2-yl (5-methyl-1,3,4-thiadiazol-2-yl)carbamate], 8.24; under `COc1cnc2c(-c3nc4c(Cl)c(F)c(OC[C@@H](C)OC(=O)Nc5ccc(C#N)nc5)cc4s3)cc(C)cc2n1` [Example 371, (R)-1-((4-chloro-5-fluoro-2-(2-methoxy-7-methylquinoxalin-5-yl)benzo[d]thiazol-6-yl)oxy)propan-2-yl (6-cyanopyridin-3-yl)carbamate], 8.74.

Take `COc1cnc2c(-c3nc4c(Cl)c(F)c(OC[C@@H](C)OC(=O)Nc5cccnc5)cc4s3)cc(C)cc2n1` [Example 372, (R)-1-((4-chloro-5-fluoro-2-(2-methoxy-7-methylquinoxalin-5-yl)benzo[d]thiazol-6-yl)oxy)propan-2-yl pyridin-3-ylcarbamate]: the pIC50 was 8.89.

In the case of `COc1cnc2c(-c3nc4c(Cl)c(F)c(OC[C@@H](C)OC(=O)Nc5ccc6[nH]c(=O)oc6c5)cc4s3)cc(C)cc2n1` [Example 373, (R)-1-((4-chloro-5-fluoro-2-(2-methoxy-7-methylquinoxalin-5-yl)benzo[d]thiazol-6-yl)oxy)propan-2-yl (2-oxo-2,3-dihydrobenzo[d]oxazol-6-yl)carbamate], the pIC50 is 9.05.

As for `COc1cnc2c(-c3nc4c(Cl)c(F)c(OC[C@@H](C)OC(=O)Nc5ccc(C(F)(F)F)nc5)cc4s3)cc(C)cc2n1` [Example 374, (R)-1-((4-chloro-5-fluoro-2-(2-methoxy-7-methylquinoxalin-5-yl)benzo[d]thiazol-6-yl)oxy)propan-2-yl (6-(trifluoromethyl)pyridin-3-yl)carbamate], the pIC50 was 6.96.

Take `COc1cnc2c(-c3nc4c(Cl)c(F)c(OC[C@@H](C)OC(=O)Nc5cnc6c(c5)CC=N6)cc4s3)cc(C)cc2n1` [Example 375, (R)-1-((4-chloro-5-fluoro-2-(2-methoxy-7-methylquinoxalin-5-yl)benzo[d]thiazol-6-yl)oxy)propan-2-yl 3H-pyrrolo [2,3-b]pyridin-5-yl carbamate]: the pIC50 was 8.77. Under `COc1cnc2c(-c3nc4c(Cl)c(F)c(OC[C@@H](C)OC(=O)Nc5cnccc5C)cc4s3)cc(C)cc2n1` [Example 376, (R)-1-((4-chloro-5-fluoro-2-(2-methoxy-7-methylquinoxalin-5-yl)benzo[d]thiazol-6-yl)oxy)propan-2-yl (4-methylpyridin-3-yl) carbamate] stands 7.14; under `COc1cnc2c(-c3nc4c(Cl)c(F)c(OC[C@@H](C)OC(=O)Nc5ccc(C)nc5)cc4s3)cc(C)cc2n1` [Example 377, (R)-1-((4-chloro-5-fluoro-2-(2-methoxy-7-methylquinoxalin-5-yl)benzo[d]thiazol-6-yl)oxy)propan-2-yl (6-methylpyridin-3-yl)carbamate], 8.37.
